Reference: patent US10179928B2, “Methods and tests for screening bacterial biofilms” (Helmholtz-Zentrum fuer Infektionsforschung GmbH, priority 2009, dated 2019)
In brackets after ≈: the same amount, converted by molar mass.

Tests used:
[1] = tested on: P. aeruginosa PA14 and five clinical CF isolates (planktonic); experiment: Planktonic MIC determination with the semi-automated Vitek2 system; settings: for MIC: Pseudomonas aeruginosa, Vitek2
Experimental: Clinical isolates were recovered from the respiratory tracts of chronically infected people with CF at the Hannover Medical School and differed according to morphology and resistance profile. The MICs were determined by the use of the semi-automated Vitek2 system (Biomerieux).

[2] = tested on: P. aeruginosa PA14 and five clinical strains; experiment: CFU determinations of whole well content (planktonic and biofilm bacteria); assay type: cell-based, Pseudomonas aeruginosa
[3] = tested on: P. aeruginosa biofilms (PA14 and five clinical CF isolates); experiment: Biofilm susceptibility test: 96-well biofilm, BacLight (Syto9/PI) staining, automated CLSM, PHLIP biovolume analysis; assay type: cell-based, Pseudomonas aeruginosa
Experimental: The evening before the inoculation of the 96-well microtitre plates, inoculate bacteria from a single colony into 2 ml of LB medium in a tube and incubate the preculture in an orbital shaker (180 r.p.m.) at 37° C. overnight (˜16 h). The next morning, prepare a subculture from the overnight culture by diluting it with fresh LB medium to an OD600 of 0.02. The total volume of the inoculated medium depends on the number of replicates and the number of antibiotics or antibiotic dilutions to be tested for this isolate. II. Biofilm Growth Take off the lid of the designated number of sterile half-area μClear microtitre plates and use 100 μl per well of the diluted overnight culture(s) (Step 2) to inoculate the wells (testing different antibiotics, antibiotic dilutions and a minimum of two replicates for each combination). Thereafter, seal the plate(s) with an air-permeable cover foil (no lid) and incubate for 24 h at 37° C. in an incubator with humid atmosphere. III. Antibiotic-Treatment of the Biofilms After 24 h of growth, the biofilms within the wells of the microtitre plate were exposed to antibiotics. Stock solutions of the chosen antibiotics in LB medium were prepared and two-fold serial dilutions in fresh LB-medium were performed. […] To add the antibiotic dilutions to the microtitre plates, the plates were taken out of the incubator into a safety cabinet. The cover foil was removed and 40 μl antibiotic solution to the appropriate well (different antibiotics/concentrations) were added except to the control well(s) where only LB is added. IV. Staining of the Biofilms Prepare staining solution as described above (see REAGENT SETUP). […] Cover the microtitre plate with a fresh air-permeable foil and return the plate to the incubator. Continue incubation for 24 h at 37° C. before imaging. Immediately before microscopy (after ˜48 h total incubation time), remove the microtitre plate with treated biofilms from the incubator. V. Microscopy Automated Run or Manual Run When using the automated confocal Opera system, two positions at the center of each well are chosen automatically to acquire z-stacks of the biofilms. […] Focal planes are acquired starting from the bottom of the plate (position 0) with an interplane distance (z-step size) of 3 μm (using a 40×/0.85 numerical-aperture (NA) air objective). Syto9 is excited with a 488-nm laser and detected with a 540/75 nm band-pass emission filter, whereas PI is excited at 561 nm and detected with a 600/40 nm band-pass emission filter. If a non-automated confocal microscope is used, choose adequate filter settings for Syto9 and PI. To enhance comparability, biofilm images should be recorded at the center of a well. In a manual process, due to time reasons image acquisition might be reduced to one stack per well if 2-3 replicates of the same sample are present within the plate. VI. Data Analysis Computer Calculation Save the image stacks as single .bmp image files (image files may require conversion, for example, with MATLAB software). Batch-process all images using a background subtraction tool (for example, the ‘Subtract Background’ command in ImageJ). Following background subtraction, use an Otsu-thresholding algorithm to obtain thresholded binary images (8-bit format). Reduce the appearance of planktonic bacteria and outlying pixels with a noise filter (such as the ‘Remove Outliers’ command in ImageJ). Steps 11-13 are exemplified in Supplementary FIG. 1. Reassemble the image stacks from the individual processed binary images for each position and channel with Auto PHLIP-ML software. Use the MATLAB-based tool PHLIP (without connected volume filtration) to calculate descriptive parameters of biofilms (including biovolume, substratum coverage, area-to-volume ratio, spatial spreading and 3D colocalization) from the integrated total of each individual slice of a thresholded z-stack.

[4] = tested on: mixed bacterial communities from sputum specimens of two cystic fibrosis patients; experiment: Multi species biofilm susceptibility test of sputum specimens; assay type: cell-based; settings: one sputum sample; 1 mg ml−1

| Compound | MIC ([1]; isolate 5497, planktonic) [µg/mL] | MIC ([1]; isolate 5520, planktonic) [µg/mL] | MIC ([1]; isolate 5522, planktonic) [µg/mL] | MIC ([1]; isolate 5524, planktonic) [µg/mL] | MIC ([1]; isolate 5529, planktonic) [µg/mL] | MIC ([1]; isolate PA14, planktonic) [µg/mL] | MIC interpretation category ([1]; isolate 5497, Vitek2) | MIC interpretation category ([1]; isolate 5520, Vitek2) | MIC interpretation category ([1]; isolate 5522, Vitek2) | MIC interpretation category ([1]; isolate 5524, Vitek2) | MIC interpretation category ([1]; isolate 5529, Vitek2) | MIC interpretation category ([1]; isolate PA14, Vitek2) | biofilm response ([3]; isolate 5497) | also measured |
| --- | --- | --- | --- | --- | --- | --- | --- | --- | --- | --- | --- | --- | --- | --- |
| CC(C)(O/N=C(\C(=O)N[C@@H]1C(=O)N2C(C(=O)[O-])=C(C[n+]3ccccc3)CS[C@H]12)c1csc(N)n1)C(=O)O [ceftazidime] | 1 (≈ 1.83 µM) | 4 (≈ 7.32 µM) | 4 (≈ 7.32 µM) | 2 (≈ 3.66 µM) | ≤ 1 | ≤ 1 | S | S | S | S | S | S | ✓ (Biofilms were categorized as responsive (✓) if a consistent increase in the fraction of red and yellow (colocalized) fluorescenct biovolume (reaching ~ 80% of the total biovolume) within a given antibiotic concentration range was detected.) | CFU count ([2]; strain 5497): 10^6 cells per ml; CFU count ([2]; strain PA14, without correlated imaging data): 10^6 cells per ml; RY biovolume of the total biovolume ([3]; strain 5497): ~80% |
| CC(C)O [isopropanol] |  |  |  |  |  |  |  |  |  |  |  |  |  | killing verified by CFU counts ([2]; biofilms of three clinical isolates): efficiently killed; fraction of green fluorescence in killed biofilm ([3]; biofilms of three clinical isolates, killing control): 10-20% |
| C[C@@H](O)[C@H]1C(=O)N2C(C(=O)O)=C(S[C@@H]3CN[C@H](C(=O)N(C)C)C3)[C@H](C)[C@H]12 [meropenem] | ≤ 0.25 | 0.5 (≈ 1.3 µM) | 2 (≈ 5.22 µM) | ≤ 0.25 | 1 (≈ 2.61 µM) | ≤ 0.25 | S | S | S | S | S | S |  | CFU counts ([2]; strain 5529 at 128 μg ml−1): ~10^6 cells per ml; susceptibility under biofilm growth conditions ([3]; all strains): resistance |
| NC[C@H]1O[C@H](O[C@H]2[C@H](O)[C@@H](O[C@H]3O[C@H](CO)[C@@H](O)[C@H](N)[C@H]3O)[C@H](N)C[C@@H]2N)[C@H](N)C[C@@H]1O [tobramycin] | ≤ 0.25 | 1 (≈ 2.14 µM) | > 32 | 1 (≈ 2.14 µM) | > 32 | 1 (≈ 2.14 µM) | S | S | R | S | R | S | ✓ (Biofilms were categorized as responsive (✓) if a consistent increase in the fraction of red and yellow (colocalized) fluorescenct biovolume (reaching ~ 80% of the total biovolume) within a given antibiotic concentration range was detected.) | change in CFUs ([2]; strains 5522, 5524 and 5529, low antibiotic concentrations): minor decrease; CFU counts ([2]; strains PA14, 5497 and 5520, increasing concentrations): ≤ 10^5 cells per ml; biofilm response ([3]; isolate 5520): ✓ (Biofilms were categorized as responsive (✓) if a consistent increase in the fraction of red and yellow (colocalized) fluorescenct biovolume (reaching ~ 80% of the total biovolume) within a given antibiotic concentration range was detected.); biofilm response ([3]; isolate PA14): ✓ (Biofilms were categorized as responsive (✓) if a consistent increase in the fraction of red and yellow (colocalized) fluorescenct biovolume (reaching ~ 80% of the total biovolume) within a given antibiotic concentration range was detected.); fraction of the RY biovolume of the total biovolume ([3]; strain 5529 at 512 μg ml−1): ~80%; fraction of the RY (red+yellow) biovolume of the total biovolume ([3]; strains PA14, 5497 and 5520, increasing concentrations, 2-512 μg ml−1): ~80% |
| colistin |  |  |  |  |  |  |  |  |  |  |  |  |  | biofilm responsiveness [4]: responsive |
